# Experimental data reported in patent publication US20010056071A1, “Use of resveratrol for the treatment of exfoliative eczema, acne and psoriasis” (priority 2000, published 2001).
# Tests used:
# [1] = test system: severe disabling exfoliative eczema; experiment: Clinical study of 1% resveratrol ointment in exfoliative eczema (six-area/six-sign score); assay type: in vivo, patients
# Description: Experiments were carried out on patients (n=20) of both sexes, of age above 18 years, suffering from severe disabling exfoliative eczema unresponsive to the current topical treatments.
# All patients were subjected to complete blood count and measurements of renal and hepatic functions prior to treatment. Patients who had been systemically treated two months previously with corticoids, antibiotics, psoralenes and other immunosuppressants or with UV were excluded. Patients were supposed not to use any corticoid topically.
# Out of 20 patients, 10 were included in the resveratrol-treated group (1% resveratrol ointment) and 10 in the control group (ointment with no resveratrol). […] Patients were divided in two groups and treated twice a day for six months either with the resveratrol-containing ointment or with the placebo ointment (control group).
# The progress of the disease was monitored by using the “six-area/six-sign score” method. The severity of the six signs used for monitoring the disease (erythema, pustules, excoriations, dehydration, scaling of the skin and lichenification), was evaluated on a 0-3 score (none, mean, moderate and severe), in each of the six body areas tested (head, neck, hands, elbows, feet, legs and trunk). The severity of itching and of sleep disorders was evaluated on a 0-3 score (none, mean, moderate and severe).
# acne vulgaris = experiment: Randomized, double blind study of topical resveratrol (1% cream) in acne vulgaris; assay type: in vivo, patients; conditions: 1% cream daily for 10 weeks
# Description: A randomized, double blind study was carried out in order to evaluate the effectiveness of topical administration of resveratrol in the treatment of acne vulgaris. Patients (n=30) of 15 to 19 years were all suffering from II or III degree acne (according to Pillsbury's classification), with multiple inflammatory lesions (20 to 62) and a number of comedos (28 to 120) on face and forehead. Only subjects who had received no systemic treatment with antibiotics for at least 4 weeks and had used no topical medicaments for 2 weeks before treatment were selected. During treatment with resveratrol, no further topical treatment was allowed. The effectiveness of the therapy was evaluated by comparing the conditions of the lesions before and after the treatment, according to an arbitrary score of 0 to 5 (0=worsening; 1=no changes; 2=slight improvement; 3=modest improvement; 4=good improvement; 5=excellent improvement).
# Treatment consisted of daily topical administrations of resveratrol (1% cream) or of the carrier only, for 10 weeks in 30 patients suffering from acne vulgaris. The evaluated parameters were: number of acne lesions and comedos, erythema, seborrhoic skin and skin scaling.
# chronic psoriasis = experiment: Multi-center, double blind study of ointments in mild to moderate chronic psoriasis; assay type: in vivo, patients; conditions: for percentage of patients healed or showing marked improvement (treatment effective): ointment twice a day for one month, 1% resveratrol, calcipotriol 50 mg/g, or both, 12 patients per group, control 10%
# Description: A prospectic, multi-center, double bind study was effected on patients of both sexes, of age above 18 years, with a clinical diagnosis of mild to moderate chronic psoriasis, with affected areas of at least 100 cm^2, but not above 40% of the total body area. Patients with pustular psoriasis or with psoriasis guttata, those who had received either topical treatment for two weeks before the test or systemic treatment in the 8 weeks before the test, as well as pregnant and nursing women or patients receiving more than 400 IU of vitamin D daily or any other medicament potentially affecting the progress of the disease, were excluded.
# Out of 48 patients, 12 were included in the resveratrol-treated group (1% resveratrol ointment), 12 in the control group (ointment with no resveratrol), 12 in a group treated with a Vitamin D derivative (calcipotriol 50 mg/g) and 12 in a group treated with the combination resveratrol/Vitamin D derivative (1% resveratrol/50 mg/g calcipotriol). […] Patients were treated twice a day for one month with the different ointments.
# At the end of the treatment, the clinical response was evaluated as “healed”, “marked improvement”, “slight improvement”, “no changes”, “worsening”. Quality life evaluations were carried out before and after the treatment, by using the “psoriasis Disability Index” (PDI) and the “Sickness Impact Profile” (SIP). The PDI questionnaire included 15 questions as follows: daily activities (5 questions), work or school, if applicable, (3 questions), personal relationships, (2 questions), spare time (4 questions), treatment, (1 question). […] The purpose of said questions was to evaluate symptoms and feelings of the patients concerning their psoriasis during the first 4 weeks of treatment.
# [2] = test system: neutrophils, circulating cells, cells at the lesion site; experiment: General observations during and after topical treatment with resveratrol; assay type: in vivo
# [3] = end of six months treatment, 10 treated patients
systemic or topical effects during and after the treatment ([2]; topical use),SMILES,"mean of the values concerning the different clinical symptoms (six-area/six-sign score) ([1]; 1% resveratrol ointment twice a day, after the first two weeks of treatment, baseline 57.0 (SEM 1.6, n=10))","body area affected by eczema ([1]; during treatment, baseline 69% on the average)","number of treated patients showing improvements only concerning skin scaling [1, 3]","number of treated patients with significant improvements of all the considered parameters [1, 3]","mean score for itching (0-3) ([1]; end of the treatment, baseline 2.3)","mean score for sleep disorders (0-3) ([1]; end of the treatment, baseline 2.9)",cases in which effectiveness was due to the reduction of follicle hyperkeratosis (acne vulgaris),side effects (acne vulgaris),"treated subjects with significant reduction of erythema, number of acne lesions, comedos and scaling (acne vulgaris; control subjects 2%)","reduction in the total PDI score (chronic psoriasis; after treatment, 95% CI 4.4, 8.6, P=0.001, control group 1.7)",percentage of patients healed or showing marked improvement (treatment effective) (chronic psoriasis),"neutrophils activity, circulating cells, cells at the lesion site ([2]; after topical treatment)"
neither systemic nor topical effects,"Oc1ccc(/C=C/c2cc(O)cc(O)c2)cc1 [resveratrol, 3,4′,5-trihydroxy-trans-stilbene]",21.5,27%,two,8 patients,0.6,1.0,95%,neither systemic nor topical side effects,96%,6.5,80%,no changes of neutrophils activity
–,"C=C1/C(=C\C=C2/CCC[C@]3(C)[C@@H]([C@H](C)/C=C/[C@@H](O)C4CC4)CC[C@@H]23)C[C@@H](O)C[C@@H]1O [Vitamin D derivatives, calcipotriol, reference compound]",–,–,–,–,–,–,–,–,–,–,47%,–
